Source: the CheMixHub viscosity set

Assay: xn = mol fraction of the nth substance listed

CCCCCCCCCCCCc1ccccc1S(=O)(=O)[O-].[Na+] + O
viscosity [mPa·s], 101 kPa
Conditions	x1 = 5e-06	x1 = 1e-05	x1 = 2e-05	x1 = 2.2e-05	x1 = 2.7e-05	x1 = 3.2e-05	x1 = 3.8e-05	x1 = 4.3e-05	x1 = 4.9e-05	x1 = 5.4e-05
293.15 K	0.9811	0.9821	0.9837	0.9859	0.9881	0.9903	0.9919	0.9944	0.9974	1.001
298.15 K	0.8497	0.8508	0.8522	0.8544	0.8558	0.857	0.8582	0.86	0.8614	0.864
303.15 K	0.7683	0.7687	0.77	0.7718	0.7744	0.7763	0.7812	0.7864	0.796	0.7988
308.15 K	0.6924	0.6932	0.6943	0.6958	0.6979	0.7013	0.7051	0.7074	0.7106	0.7123
313.15 K	0.6075	0.609	0.6102	0.6121	0.6138	0.6167	0.6203	0.623	0.6242	0.6262

CCN(CC)CC + O
293.15 K, 100 kPa
Conditions	viscosity [mPa·s]
x1 = 0.0049	1.176
x1 = 0.0095	1.323
x1 = 0.015	1.554
x2 = 0.1006	0.4211
x2 = 0.204	0.5113
x2 = 0.2996	0.6374
x2 = 0.4007	0.8296
x2 = 0.4997	1.135
x2 = 0.5997	1.614
x2 = 0.7028	2.385
x2 = 0.98	1.722

NCC(=O)N[C@@H](CCC(N)=O)C(=O)O + O
298.15 K, 101 kPa
Conditions	viscosity [mPa·s]
x1 = 0.001798	0.937
x1 = 0.002695	0.96

NNC(=O)c1ccncc1 + O
viscosity [mPa·s]
Conditions	298.15 K	303.15 K	308.15 K	313.15 K
100 kPa, x1 = 0.00051	–	–	0.7216	–
100 kPa, x1 = 0.000801	–	0.8033	0.724	–
100 kPa, x1 = 0.00109	0.9009	0.8061	0.7263	0.6588
100 kPa, x1 = 0.00153	0.9061	0.8104	0.7299	0.6617
101 kPa, x1 = 0.003	0.9182	–	0.7383	–
